Experimental data from PMC10223284, “Category-Based Toxicokinetic Evaluations of Data-Poor Per- and Polyfluoroalkyl Substances (PFAS) using Gas Chromatography Coupled with Mass Spectrometry” (Toxics, 2023).
Values joined by “and” are separate entries in the source; they are usually repeats but may differ in a detail not shown here. Equal values may be shown once.

How the values were obtained:
[1] = Abiotic loss in negative controls of the hepatocyte clearance assay (cell-free media, metabolically inactivated hepatocytes); assay type: in vitro ADME; settings: flag for stability failure in hepatocyte clearance assay controls (1 or Fst = fail, 0 = pass)
Protocol: The hepatic metabolic stability assay measures the loss of a parent compound over time in a substrate-depletion approach. Briefly, hepatocyte suspensions, after a viability assessment, were diluted in complete William’s medium E (containing dexamethasone and cell maintenance cocktail B) prior to addition to 96-well polypropylene plates containing an equal volume of media spiked with the test compound (1 μM assay concentration; assay cell density = 50,000 cells/100 μL) and maintained at 37 °C with shaking. At each time point, relevant plates were crashed with an equal volume of ice-cold acetonitrile, centrifuged, and supernatant transferred to a new plate prior to storage at <−70 °C until quantitative analysis. Controls, run in parallel, included cell-free (i.e., media only) and metabolically inactivated hepatocytes to evaluate abiotic chemical stability in the aqueous media matrix with and without cellular protein. In preliminary runs, these controls were run at T0 and T240 only. If significant instability was noted, the hepatocyte clearance assay was rerun, including cell-free samples at each time point and metabolically inactivated hepatocytes at selected time points.
Negative controls, including media only and metabolically inactivated hepatocyte controls, were included to monitor abiotic loss (i.e., background clearance) during the assay. Where significant compound loss occurred using the analysis described above, background clearance rates were calculated and used to background-adjust hepatic metabolic clearance rates. Where chemicals were cleared prior to the end of the analysis, at 240 min (T240), the corresponding negative control timepoint was used for background subtraction. Any chemicals displaying a 50% or more abiotic loss at T120 were deemed unstable and were excluded from further analyses.

[2] = in vitro; settings: both, human, plasma
[3] = tested on: human plasma; test: Ultracentrifugation (UC) plasma protein binding assay, fraction unbound in plasma (fup); settings: for Aqueous Fraction / Aqueous Fraction, Run-specific Avg: amount measured in aqueous fraction after ultracentrifugation, unit not given; for Aqueous Fraction: replicates A, B, C; for Aqueous Fraction, Run-specific Avg: run average; for Fup.Med: median fraction unbound in plasma; for Fup.Med / Fup.point: UC assay Level4; for Fup.point: point estimate of fraction unbound in plasma; for Fraction Unbound (fu), replicates A, B, C: single replicate of one UC run (aqueous fraction / Time 5 hr); for Mean fu: fraction unbound in human plasma, some values based on eLOQ
[4] = tested on: human plasma; test: Chemical stability in plasma over the UC assay time course (T5hr/T1hr); settings: for Time 1 hr / Time 1 hr, Run-specific Avg: amount measured in plasma sample at 1 hr; for Time 1 hr / Time 5 hr: replicates A, B, C; for Time 1 hr / Time 1 hr, Run-specific Avg / Time 5 hr / Time 5 hr, Run-specific Avg: unit not given; for Time 1 hr, Run-specific Avg / Time 5 hr, Run-specific Avg: run average; for Time 5 hr / Time 5 hr, Run-specific Avg: amount measured in plasma sample at 5 hr; for % remaining_PPB: chemical remaining in plasma over the PPB assay time course, NS = no significant loss; for PPB_Stab_Fail: flag for stability failure in the plasma protein binding assay (1 = fail, 0 = pass); for Fstable.Med: median fraction stable in plasma, UC assay Level4; for Stability (T5hr/ T1hr), replicates A, B, C: single replicate of one UC run
[5] = Fraction Unbound (fu), Run-specific Avg, average of one UC run
[6] = Fraction Unbound (fu), individual replicates A, B, C of the UC run named in c8
[7] = Mean Fu, mean fraction unbound over all replicates and runs, UC assay, human plasma
[8] = Mean fu, fraction unbound in human plasma, ultracentrifugation, some values based on eLOQ
[9] = average of one UC run (run date in line above)
[10] = mean T5hr/T1hr ratio in plasma over all replicates/runs
[11] = mean T5hr/T1hr ratio over all replicates and runs, plasma
[12] = Mean Fu, mean fraction unbound in human plasma over all UC replicates/runs
[13] = mean over all UC runs and replicates, human plasma

SMILES	Hep_Stab_Fail [1]	fraction unbound [2, 5]	fraction unbound [2, 6]	fraction unbound [2, 8]	Aqueous Fraction [3]	Aqueous Fraction, Run-specific Avg [3]	Fup.Med [3]	Fup.point [3]	Time 1 hr [4]	Time 1 hr, Run-specific Avg [4]	Time 5 hr [4]	Time 5 hr, Run-specific Avg [4]	Stability (T5hr/ T1hr), Run-specific Avg ([4]; average of one UC run)	Stability (T5hr/ T1hr), Run-specific Avg [4, 9]	% remaining_PPB [4] [%]	PPB_Stab_Fail [4]	Mean Stability [4, 10]	Mean Stability [4, 11]	Fstable.Med [4]	Mean fu ([3]; ultracentrifugation)	other results
FC(F)(I)C(F)(F)C(F)(F)C(F)(F)C(F)(F)C(F)(F)I [1,6-Diiodoperfluorohexane]	1	0.0256	0.0161	0.026	94.9667 and 176.609 and 162.022	144.53	0.295	0.267	8774.08 and 7745.84 and 7383.58	7967.83	5893.98 and 5567.71 and 5583.03	5730.84	0.719	0.687	72	0	0.718	0.685	0.577	–	fraction unbound ([2]; Fraction Unbound (fu), Run-specific Avg, average of one UC run (run date in line above)): 0.36; fraction unbound [2, 7]: 0.361; Fraction Unbound (fu), replicates A, B, C [3]: 0.5494 and 0.308 and 0.227; Stability (T5hr/ T1hr), replicates A, B, C [4]: 0.7185 and 0.686 and 0.6511
OCCCC(F)(F)C(F)(F)C(F)(F)C(F)(F)C(F)(F)C(F)(F)C(F)(F)C(F)(F)F [3-(Perfluorooctyl)propanol]	1	–	–	0.0357	–	–	0.0348	0.0352	–	–	–	–	–	0.894	–	0	–	0.893	0.272	–	fraction unbound ([2]; Fraction Unbound (fu), replicates A, B, C, single replicate of one UC run (aqueous fraction / Time 5 hr)): 0.0277; fraction unbound [2, 7]: 0.036; Fraction Unbound (fu), replicates A, B, C [3]: 0.03475 and 0.04477; Stability (T5hr/ T1hr), replicates A, B, C [4]: 0.9156 and 0.9452 and 0.8196
FC(F)(Br)C(F)(F)C(F)(F)C(F)(F)C(F)(F)C(F)(F)Br [1,6-Dibromododecafluorohexane]	1	0.00422	0.00424	0.004	16.97	16.97	1.78E-09	0	8781.60 and 9238.06 and 11600.01	9873.23	4002.39 and 3732.26 and 4390.36	3867.32	0.392	–	40	0	0.415	–	0.312	–	fraction unbound [2, 12]: 0.00422; fup ([3]; human plasma, 10 μM, ultracentrifugation, 37 °C): 0.004
FC(F)(I)C(F)(F)C(F)(F)C(F)(F)I [Perfluoro-1,4-diiodobutane]	1	0.00546	0.00698	0.0055	6.005 and 3.594 and 5.646	5.08	0.00723	0.00533	1436.94 and 1194.41 and 1213.84	1281.73	860.037 and 995.998 and 977.671	928.02	0.724	–	–	0	0.740	–	0.11	–	fraction unbound [2, 12]: 0.00546
OCC(F)(F)C(F)(F)C(F)(F)C(F)(F)C(F)(F)C(F)(F)C(F)(F)C(F)(F)C(F)(F)C(F)(F)C(F)(F)F [11:1 Fluorotelomer alcohol]	1	–	–	–	595.593 and 1494.34 and 453.605	847.84	0.0578	0.0621	16624.1 and 16003.4 and 18170.7	16932.71	8697.13 and 19831.5 and 16897.3	14264.32	0.842	–	100	0	0.909	–	0.341	0.0570	Fraction Unbound (fu), Run-specific Avg ([3]; average of one UC run): 0.0569
OCC(F)(F)C(F)(F)C(F)(F)CO [Hexafluoroamylene]	–	0.06	0.0437	–	160.563 and 273.771 and 229.145	221.16	0.627	0.675	5856.63 and 5544.86 and 5920.14	5773.88	3672.88 and 3626.61 and 3711.47	3649.75	0.632	–	–	–	0.636	–	0.988	–	fraction unbound [2, 12]: 0.06
FC(F)(F)C(F)(F)C(F)(F)C(F)(F)C(F)(F)C(F)(F)C(F)(F)CCI [1-Iodo-1H,1H,2H,2H-perfluorononane]	Fst	–	–	–	–	–	0.108	0.112	–	–	–	–	–	–	51.7	0	–	–	0.358	0.1123	–
NC(=O)C(F)(F)C(F)(F)C(F)(F)C(F)(F)C(F)(F)C(F)(F)C(F)(F)F [Perfluorooctanamide]	1	–	–	–	–	–	0.0252	0.0263	–	–	–	–	–	–	–	0	–	–	0.738	0.0282	Mean Fu (fraction unbound) [3, 13]: 0.028; Fraction Unbound (fu), Run-specific Avg ([3]; run-specific average): 0.0266; Mean Stability (T5hr/T1hr) [4, 13]: 0.838; Stability (T5hr/ T1hr), Run-specific Avg ([4]; run-specific average): 0.841
N=C(N)C(F)(F)C(F)(F)C(F)(F)C(F)(F)C(F)(F)C(F)(F)C(F)(F)F [Perfluorooctanamidine]	1	–	–	–	–	–	4.95E-09	0.0261	–	–	–	–	–	0.890	67	0	–	0.892	0.0291	0.0253	Stability (T5hr/ T1hr), replicates A, B, C [4]: 0.858 and 0.887 and 0.929
FC(F)(F)COC(OCC(F)(F)F)OCC(F)(F)F [tris(Trifluoroethoxy)methane]	1	–	–	–	–	–	0.132	0.0994	–	–	–	–	–	0.660	66	0	–	0.662	0.362	0.1728	Fraction Unbound (fu), Run-specific Avg [3, 9]: 0.17; Mean Fu ([3]; mean fraction unbound over all replicates and runs, UC assay, human plasma): 0.173; Fraction Unbound (fu), replicates A, B, C [3]: 0.186 and 0.1626 and 0.1699; Stability (T5hr/ T1hr), replicates A, B, C [4]: 0.6799 and 0.6407 and 0.6662
NCC(F)(F)C(F)(F)C(F)(F)C(F)(F)C(F)(F)C(F)(F)C(F)(F)F [1H,1H-Perfluorooctylamine]	Fst	–	–	–	245.64 and 173.583 and 303.476	240.90	0.605	0.345	5598.62 and 5535.59 and 4647.69	5260.63	3087.52 and 3094.29 and 2839.44	3090.91	0.588	–	58	0	0.577	–	0.0977	0.105	Fraction Unbound (fu), Run-specific Avg ([3]; average of one UC run): 0.08; Mean Fu ([3]; mean fraction unbound in human plasma over all UC replicates/runs): 0.081
FC(F)(F)C(F)(F)C(F)(F)C(F)(F)C(F)(F)C(F)(F)C(F)(F)I [1-Iodopentadecafluoroheptane]	1	–	–	–	–	–	0.907	–	–	–	–	–	–	–	16	1	–	–	0.202	–	–
